The source of these data is patent EP4417607A1, “HETEROCYCLIC COMPOUND AS SOS1 INHIBITOR AND USES THEREOF” (Nanjing Zaiming Pharmaceutical Co., Ltd., priority 2021, dated 2023).

Type in all cases: in vitro ADME
The target in data set [1] is T1, CYP2D6 (Homo sapiens, UniProt P10635).
T1 construct: Human liver microsome (Corning 452117); tissue Corning 452117; host or cells: human liver microsomes
The experiment in a line: CYP2D6 enzymatic activity inhibition in human liver microsomes. Conditions: IC50, human liver microsome, substrate dextromethorphan. The method, then:
(§1) The inhibition of CYP2C9, CYP2D6, and CYP3A4 enzymatic activity by the compound of the present invention was determined using the following method. • I. Experimental materials and instruments • 1. Human liver microsome (Corning 452117) • 2. Na2HPO4 (Sigma SLBZ6180) • 3. KH2PO4 (Sigma SLBT6559) • 4. NADPH (Solarbio 705Y021) • […] • 6. Positive substrates diclofenac (Sigma SLBV3438), dextromethorphan (TRC 3-EDO-175-1), and midazolam (Cerilliant FE01161704) • 7. Positive inhibitors sulfaphenazole (D. Ehrenstorfer GmbH 109012), quinidine (TCI WEODL-RE), and ketoconazole (Sigma 100M1091V) • 7. AB Sciex Triple Quad 5500 liquid chromatography-mass spectrometry system • II. Procedures • 1. Preparation of 100 mM phosphate-buffered saline (PBS): 7.098 g Na2HPO4 was weighed. 500 mL pure water was added. The mixture was dissolved by sonication to give solution A. 3.400 g KH2PO4 was weighed. 250 mL pure water was added. The mixture was dissolved by sonication to give solution B. The solution A was placed in a stirrer, and the solution B was slowly added until the pH reached 7.4 to prepare the 100 mM PBS buffer. • 2. A 10 mM NADPH solution was prepared with a 100 mM PBS buffer. A 10 mM stock solution of the compound of the present invention was diluted with DMSO to give a compound working solution at a concentration of 200× (6000, 2000, 600, 200, 60, 20, and 0 µM). The positive inhibitor stock solution was diluted with DMSO to give a positive inhibitor working solution at a concentration of 200× (sulfaphenazole, 1000, 300, 100, 30, 10, 3, and 0 µM; quinidine/ketoconazole, 100, 30, 10, 3, 1, 0.3, and 0 µM). Substrate working solutions (120 µM diclofenac, 400 µM dextromethorphan, and 200 µM midazolam) at a concentration of 200× were prepared with water, acetonitrile, or acetonitrile/methanol. • 3. […]
(§2) The values were calculated by Excel XLfit 5.3.1.3 to obtain IC50 values for the compounds of the present invention against CYP2C9, CYP2D6, and CYP3A4 as shown in Table 8. […]
(Microsomes from liver hold many membrane-bound enzymes, among them those of drug oxidation.)

A short description of data set [2]: Plasma protein binding rate by equilibrium dialysis. Particulars: CD-1 mouse plasma, 1 µM compound, 6 h dialysis at 37 °C. On the procedure: • 1. CD-1 mouse plasma (BioIVT) • 2. 96-well equilibrium dialysis plate (HTDialysis LLC, Gales Ferry, CT, HTD96B) and equilibrium dialysis membrane (MWCO 12-14K, #1101) • 3. Positive control compound warfarin • 4. ABI QTrap 5500 liquid chromatography-mass spectrometry system
• 1. Preparation of a buffer with a concentration of 100 mM sodium phosphate and 150 mM NaCl: an alkaline solution with a concentration of 14.2 g/L Na2HPO4 and 8.77 g/L NaCl was prepared with ultrapure water, and an acidic solution with a concentration of 12.0 g/L NaH2PO4 and 8.77 g/L NaCl was prepared with ultrapure water. The alkaline solution was titrated with the acidic solution until the pH was 7.4 to prepare a buffer with a concentration of 100 mM sodium phosphate and 150 mM NaCl. • 2. Preparation of a dialysis membrane: the dialysis membrane was soaked in ultrapure water for 60 min to separate the membrane into two pieces, then soaked with 20% ethanol for 20 min, and finally soaked with dialysis buffer for 20 min. • 3. Preparation of plasma: the frozen plasma was quickly thawed at room temperature and then centrifuged at 3,220 g at 4 °C for 10 min to remove clots, and the supernatant was collected to a new centrifuge tube. The pH of the plasma was measured and recorded. The plasma with pH 7-8 was used. • 4. Preparation of a plasma sample containing the compound: A 10 mM stock solution of the compound or the positive control compound was diluted with DMSO to give a 200 µM working solution. 3 µL of 200 µM of the compound working solution was added to 597 µL of mouse plasma to give a plasma sample with a final concentration of 1 µM. • 5. Equilibrium dialysis procedures: a dialysis device was assembled according to the instructions. […]
The peak areas of the compound on the buffer side and the plasma side were measured. The plasma protein binding rate of the compound was calculated by the following formula: [formula] %Binding rate = 1−%Free rate [formula]
All data were calculated by Microsoft Excel software. […]

For data set [3], the target named is T2, CYP3A4 (Homo sapiens, UniProt P08684).
T2 construct: Human liver microsome (Corning 452117); tissue Corning 452117; host or cells: human liver microsomes
Nature of the data set: CYP3A4 enzymatic activity inhibition in human liver microsomes. Particulars: IC50, human liver microsome, substrate midazolam. On the procedure:
as §1, §2

Structures are written as SMILES.

T1 sequence (P10635 whole entry): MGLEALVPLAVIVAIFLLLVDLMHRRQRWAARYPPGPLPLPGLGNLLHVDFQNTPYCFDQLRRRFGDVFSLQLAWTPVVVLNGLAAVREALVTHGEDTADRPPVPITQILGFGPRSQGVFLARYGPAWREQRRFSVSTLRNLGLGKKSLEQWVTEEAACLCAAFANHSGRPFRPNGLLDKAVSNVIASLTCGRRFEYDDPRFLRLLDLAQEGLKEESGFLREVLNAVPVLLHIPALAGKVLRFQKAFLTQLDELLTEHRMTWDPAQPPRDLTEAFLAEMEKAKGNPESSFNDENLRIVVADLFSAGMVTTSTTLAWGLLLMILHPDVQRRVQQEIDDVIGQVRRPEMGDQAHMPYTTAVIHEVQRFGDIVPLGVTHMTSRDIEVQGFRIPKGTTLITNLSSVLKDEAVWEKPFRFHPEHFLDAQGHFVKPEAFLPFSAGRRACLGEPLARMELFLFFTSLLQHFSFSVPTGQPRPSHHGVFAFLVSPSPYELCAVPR
T2 sequence (P08684 whole entry): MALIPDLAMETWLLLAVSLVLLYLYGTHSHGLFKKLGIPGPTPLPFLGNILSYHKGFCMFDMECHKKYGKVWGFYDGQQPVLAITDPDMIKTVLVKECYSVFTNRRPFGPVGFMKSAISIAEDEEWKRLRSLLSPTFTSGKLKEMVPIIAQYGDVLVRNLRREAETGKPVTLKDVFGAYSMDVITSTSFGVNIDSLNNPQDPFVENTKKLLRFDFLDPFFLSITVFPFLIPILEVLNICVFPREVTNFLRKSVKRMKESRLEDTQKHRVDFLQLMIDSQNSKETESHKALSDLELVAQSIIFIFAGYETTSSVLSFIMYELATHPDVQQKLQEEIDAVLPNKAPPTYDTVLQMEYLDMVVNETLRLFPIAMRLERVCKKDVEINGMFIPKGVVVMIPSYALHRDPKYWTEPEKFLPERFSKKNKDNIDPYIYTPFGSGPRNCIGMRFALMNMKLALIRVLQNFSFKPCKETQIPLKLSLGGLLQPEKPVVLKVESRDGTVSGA

For orientation: IC50 means the concentration at which inhibition is half-maximal. As to `[2H][C@](C)(Nc1nc(C)nc2c(N3CCOCC3)c(=O)n(C3(CF)CC3)cc12)c1cccc(C(F)F)c1F` [Example 55, (R)-4-((1-(3-(difluoromethyl)-2-fluorophenyl)ethyl-1-d)amino)-6-(1-(fluoromethyl)cyclopropyl)-2-methyl-8-morpholinylpyrido[4,3-d]pyrimidine-7(6H)-one], the IC50 in data set [1] and in data set [3] was over 30 µM each time. For the same compound, in data set [2], the “%Binding rate” value was 95.7%.
`Cc1nc(N[C@H](C)c2cccc(C(F)F)c2F)c2cn(C3(CF)CC3)c(=O)c(N3CCOC[C@@H]3C)c2n1` [Example 40, 4-(((R)-1-(3-(difluoromethyl)-2-fluorophenyl)ethyl)amino)-6-(1-(fluoromethyl)cyclopropyl)-2-methyl-8-((S)-3-methylmorpholine)pyrido[4,3-d]pyrimidine-7(6H)-one]: the IC50 in data set [1] and in data set [3] was over 30 µM each time. For the same compound, in data set [2], the “%Binding rate” value was determined as 92.9%.
With `[2H]C([2H])([2H])Oc1c(=O)n(C2(CF)CC2)cc2c(N[C@H](C)c3cccc(C(F)F)c3F)nc(C)nc12` [Example 23, (R)-4-((1-(3-(difluoromethyl)-2-fluorophenyl)ethyl)amino)-6-(1-(fluoromethyl)cyclopropyl)-8-(methoxy-d3)-2-methylpyrido[4,3-d]pyrimidine-7(6H)-one], the IC50 in data set [1] and in data set [3] was over 30 µM throughout. Moreover, the “%Binding rate” value in data set [2] was 91.3%.
